The results in this text go back to PubChem BioAssay (NCI).

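1) Cells in 96-well plates. 2) Compound, 48 h, 5 concentrations. 3) Linear interpolation between surrounding doses. 4) Unreached endpoint = highest concentration. At the GI50, growth is halved. TGI denotes the concentration required for complete inhibition of growth.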 Some results are limits rather than exact numbers.

One assay concerns RPMI-8226 leukemia. The assay can be described thus: growth of human tumour cells (NCI), 48 h.
For the molecule `COc1ccc(/C(COc2ccc3c(=O)cc(-c4ccccc4)oc3c2)=N\O)cc1`, the GI50 was 22.3 µM and the TGI was > 50 µM.
As to `COc1ccc(Br)c(N/N=C2\CCCNC2=O)c1`, the TGI is > 100 µM.
Consider `COc1cc2c(c(OC)c1OC)-c1ccc(SC)c(=O)cc1C(CO)C2` (stereo not drawn), for which the TGI was > 100 µM.
For the molecule `CC(C)C1CC[C@@H](C)C[C@@]1(O)CC(N)=O` (stereo partly drawn), the TGI is > 100 µM.
With `CCC[CH2][Sn]1([CH2]CCC)[O]C(=O)c2cccnc2[O]1`, the GI50 was 1.74 µM and the TGI is 6.34 µM.
For `COC1CC(OS(=O)(=O)c2ccc([N+](=O)[O-])cc2)C(OC(=O)c2ccccc2)C(C)O1` (stereo not drawn), the TGI was > 100 µM.
For the molecule `CCOc1ccccc1N1C(=O)C(=O)C(c2nc3ccccc3o2)C(=O)C1=O`, the TGI is > 100 µM.
Still for that read-out and setting: as for `Cn1cc(C(=O)NCCC(=N)N)cc1NC(=O)C1=[N+](C)C=C(NC(=O)c2cccc(C(=O)NC3=CC(C(=O)Nc4cc(C(=O)NCCC(=N)N)cn4C)=[N+](C)C3)c2)C1`, the figure is > 100 µM.
With `C=C1C(=O)O[C@H]2[C@H]1CC/C(COC(=O)NCc1ccc(Cn3c(=O)sn(CCCl)c3=O)cc1)=C\CC[C@@]1(C)O[C@@H]21`, the GI50 was 2.37 µM and the TGI came to 6.25 µM.
Consider `COc1ccc2c(c1)c(=O)oc1cc(OC/C(C)=N\O)ccc12`, for which the GI50 was > 100 µM and the TGI is > 100 µM.

The next assay has as its system UACC-257 melanoma. The assay can be described thus: growth of human tumour cells (NCI), 48 h.
As to `CCN(CC)c1c(C(=O)/C=C/c2ccc(OC)cc2)c(-c2ccccc2)nn(C)c1=O`, the TGI came out at 60.8 µM.
For the molecule `CN1C(=Nc2ccccc2)SC1=Nc1ccccc1`, the TGI is > 100 µM.
Still for that read-out and setting: as for `O=C(O)C(/C=C/c1ccccc1)c1ccccc1` (stereo not drawn), the figure is > 100 µM; as for `Oc1ccccc1/C=C/c1csnn1`, > 100 µM; as for `CP1(=O)CCCCC1`, > 100 µM.
In turn, `Cc1ccc(S(=O)(=O)OC2CSS(=O)CC2OS(=O)(=O)c2ccc(C)cc2)cc1` (stereo not drawn) displayed a TGI of 28.2 µM.
Regarding `COc1cc2c(cc1C)NC(=O)/C2=C/c1ccccn1`, the GI50 is 13.1 µM and the TGI is > 100 µM.
`O=[N+]([O-])c1cc(C(F)(F)F)cc([N+](=O)[O-])c1CCl`: the TGI turned out to be 10.2 µM.
With `CCOC(=O)N1CCN(C=S)CC1`, the TGI was > 100 µM.
Turning to `COc1cc2ccc(/C=C\[N+](=O)[O-])cc2cc1OC`, the TGI is > 22.9 µM.
On to `COc1cc([C@@H]2OC[C@@H]3C(c4cc(OC)c5c(c4)OCO5)OC[C@@H]32)cc(OC)c1OC` (stereo partly drawn), for which the TGI was > 100 µM.
In turn, `Oc1c(C(Nc2cccc3cccnc23)c2ccccc2)ccc2cccnc12` (stereo not drawn) returned a TGI of 35.9 µM.
Take `COc1ccc(/C(COc2ccc3c(=O)cc(-c4ccccc4)oc3c2)=N\O)cc1`: the GI50 was 19.6 µM and the TGI is > 35.5 µM.
Consider `COc1ccc(Br)c(N/N=C2\CCCNC2=O)c1`, for which the TGI is > 100 µM.
As for `COc1cc2c(c(OC)c1OC)-c1ccc(SC)c(=O)cc1C(CO)C2` (stereo not drawn), the GI50 was 3.45 µM and the TGI is > 100 µM.
In the case of `CC(C)C1CC[C@@H](C)C[C@@]1(O)CC(N)=O` (stereo partly drawn), the TGI is > 100 µM.
Consider `CCC[CH2][Sn]1([CH2]CCC)[O]C(=O)c2cccnc2[O]1`, for which the GI50 was 1.55 µM and the TGI turned out to be 5.04 µM.
`COC1CC(OS(=O)(=O)c2ccc([N+](=O)[O-])cc2)C(OC(=O)c2ccccc2)C(C)O1` (stereo not drawn): the TGI was > 100 µM.
On the same count and under the same terms, as for `CCOc1ccccc1N1C(=O)C(=O)C(c2nc3ccccc3o2)C(=O)C1=O`, the figure is > 100 µM.
For `CC(C)(C)n1cc(-c2ccnc(NCCCNS(=O)(=O)c3ccc(C(F)(F)F)cc3)c2)c(-c2cccc(O)c2)n1`, the GI50 is 2.07 µM and the TGI stood at 4.6 µM.
As for `Cn1cc(C(=O)NCCC(=N)N)cc1NC(=O)C1=[N+](C)C=C(NC(=O)c2cccc(C(=O)NC3=CC(C(=O)Nc4cc(C(=O)NCCC(=N)N)cn4C)=[N+](C)C3)c2)C1`, the TGI is > 100 µM.
In the case of `C=C1C(=O)O[C@H]2[C@H]1CC/C(COC(=O)NCc1ccc(Cn3c(=O)sn(CCCl)c3=O)cc1)=C\CC[C@@]1(C)O[C@@H]21`, the GI50 is 1.85 µM and the TGI was found to be 4.98 µM.
For `COc1ccc2c(c1)c(=O)oc1cc(OC/C(C)=N\O)ccc12`, in that order: > 100 µM and > 100 µM.

The test system of the next assay is NCI/ADR-RES ovarian. The assay can be described thus: growth of human tumour cells (NCI), 48 h.
Take `O=C(O)C(/C=C/c1ccccc1)c1ccccc1` (stereo not drawn): the TGI is > 100 µM.
Consider `COc1cc2c(cc1C)NC(=O)/C2=C/c1ccccn1`, for which the GI50 was 2.42 µM and the TGI came to 6.27 µM.
In turn, `COc1cc2ccc(/C=C\[N+](=O)[O-])cc2cc1OC` displayed a TGI of 17.2 µM.
The same measure, in the same setting: as for `COc1cc([C@@H]2OC[C@@H]3C(c4cc(OC)c5c(c4)OCO5)OC[C@@H]32)cc(OC)c1OC` (stereo partly drawn), the figure is > 100 µM.
With `COc1ccc(/C(COc2ccc3c(=O)cc(-c4ccccc4)oc3c2)=N\O)cc1`, the GI50 is 15.4 µM and the TGI is > 50 µM.
For `CC(C)(C)n1cc(-c2ccnc(NCCCNS(=O)(=O)c3ccc(C(F)(F)F)cc3)c2)c(-c2cccc(O)c2)n1`, in that order: 2.07 µM and 4.3 µM.
For `C=C1C(=O)O[C@H]2[C@H]1CC/C(COC(=O)NCc1ccc(Cn3c(=O)sn(CCCl)c3=O)cc1)=C\CC[C@@]1(C)O[C@@H]21`, the GI50 is 26.3 µM and the TGI was 77.8 µM.
In the case of `COc1ccc2c(c1)c(=O)oc1cc(OC/C(C)=N\O)ccc12`, the GI50 was > 100 µM and the TGI was > 100 µM.

The subject of a further assay is SN12C renal. The assay can be described thus: growth of human tumour cells (NCI), 48 h.
As to `CCN(CC)c1c(C(=O)/C=C/c2ccc(OC)cc2)c(-c2ccccc2)nn(C)c1=O`, the TGI is 78.4 µM.
On the same count and under the same terms, as for `O=C(O)C(/C=C/c1ccccc1)c1ccccc1` (stereo not drawn), the figure is > 100 µM; as for `Oc1ccccc1/C=C/c1csnn1`, > 100 µM; as for `CP1(=O)CCCCC1`, > 100 µM.
The same measure, in the same setting: as for `Cc1ccc(S(=O)(=O)OC2CSS(=O)CC2OS(=O)(=O)c2ccc(C)cc2)cc1` (stereo not drawn), the figure is 28.5 µM.
With `COc1cc2c(cc1C)NC(=O)/C2=C/c1ccccn1`, the GI50 is 4.01 µM and the TGI turned out to be 18.4 µM.
Molecule `O=[N+]([O-])c1cc(C(F)(F)F)cc([N+](=O)[O-])c1CCl` had a TGI of 3.08 µM.
On the same count and under the same terms, as for `CCOC(=O)N1CCN(C=S)CC1`, the figure is > 100 µM; as for `COc1cc2ccc(/C=C\[N+](=O)[O-])cc2cc1OC`, 6.3 µM.
Regarding `Oc1c(C(Nc2cccc3cccnc23)c2ccccc2)ccc2cccnc12` (stereo not drawn), the TGI is > 100 µM.
